Data from publication PMC11589570, “Critical assessment of LC3/GABARAP ligands used for degrader development and ligandability of LC3/GABARAP binding pockets” (Nature Communications, 2024).
Values joined by “and” are separate entries in the source; they are usually repeats but may differ in a detail not shown here. Equal values may be shown once. Read-outs that look alike come from different tables or passages of the source.

Tests used:
LC3A = LC3A (Homo sapiens, UniProt Q9H492); assay: FP assay with Cy5-labelled p62 LIR tracer (protein titration and tracer displacement); format: binding; details: for FP assay result (normalised FP signal): replicates, listed as TH152
LC3B = LC3B (Homo sapiens, UniProt Q9GZQ8); details: for CSP: LC3B:TH152 1:2

% tracer bound @LC3A (LC3A; LC3A tracer displacement, normalized on p62-LIR positive control): 26%
FP assay result (normalised FP signal) (LC3A; log10 concentration [M] -3.5): 16.9522 and 16.2308 and 9.017 and 3.246
FP assay result (normalised FP signal) (LC3A; log10 concentration [M] -5.5): 90.532 and 94.4995 and 92.3354 (2×)
FP assay result (normalised FP signal) (LC3A; log10 concentration [M] -8): 101.353 (2×) and 90.1713 and 94.4995
CSP induced (LC3B; G85 HN resonance, molar ratio TH152:LC3B 0.125): 0.02291
CSP induced (LC3B; G85 HN resonance, molar ratio TH152:LC3B 0.25): 0.03839
CSP induced (LC3B; G85 HN resonance, molar ratio TH152:LC3B 0.5): 0.1193
CSP induced (LC3B; G85 HN resonance, molar ratio TH152:LC3B 1): 0.155
CSP induced (LC3B; G85 HN resonance, molar ratio TH152:LC3B 2): 0.2522
CSP induced (LC3B; G85 HN resonance, molar ratio TH152:LC3B 4): 0.2665
CSP induced (LC3B; K51 HN resonance, molar ratio TH152:LC3B 0.125): 0.02268
CSP induced (LC3B; K51 HN resonance, molar ratio TH152:LC3B 0.25): 0.07734
CSP induced (LC3B; K51 HN resonance, molar ratio TH152:LC3B 0.5): 0.1341
CSP induced (LC3B; K51 HN resonance, molar ratio TH152:LC3B 1): 0.2088
CSP induced (LC3B; K51 HN resonance, molar ratio TH152:LC3B 2): 0.2565
CSP induced (LC3B; K51 HN resonance, molar ratio TH152:LC3B 4): 0.2885
CSP (LC3B; LC3B residue A75): 0.013 ppm
CSP (LC3B; LC3B residue A78): 0.040 ppm
CSP (LC3B; LC3B residue A114): 0.035 ppm
CSP (LC3B; LC3B residue D19): 0.028 ppm
CSP (LC3B; LC3B residue D48): 0.348 ppm
CSP (LC3B; LC3B residue D56): 0.088 ppm
CSP (LC3B; LC3B residue D104): 0.039 ppm
CSP (LC3B; LC3B residue D106): 0.043 ppm
CSP (LC3B; LC3B residue E14): 0.013 ppm
CSP (LC3B; LC3B residue E18): 0.013 ppm
CSP (LC3B; LC3B residue E25): 0.075 ppm
CSP (LC3B; LC3B residue E36): 0.143 ppm
CSP (LC3B; LC3B residue E41): 0.015 ppm
CSP (LC3B; LC3B residue E62): 0.105 ppm
CSP (LC3B; LC3B residue E97): 0.079 ppm
CSP (LC3B; LC3B residue E100): 0.117 ppm
CSP (LC3B; LC3B residue E102): 0.024 ppm
CSP (LC3B; LC3B residue E105): 0.037 ppm
CSP (LC3B; LC3B residue E117): 0.088 ppm
CSP (LC3B; LC3B residue F07): 0.134 ppm
CSP (LC3B; LC3B residue F13): 0.017 ppm
CSP (LC3B; LC3B residue F52): 0.303 ppm
CSP (LC3B; LC3B residue F108): 0.042 ppm
CSP (LC3B; LC3B residue F119): 0.051 ppm
CSP (LC3B; LC3B residue G40, estimated): 0.060 ppm
CSP (LC3B; LC3B residue G107): 0.021 ppm
CSP (LC3B; LC3B residue H27): 0.041 ppm
CSP (LC3B; LC3B residue H57): 0.104 ppm
CSP (LC3B; LC3B residue I23): 0.063 ppm
CSP (LC3B; LC3B residue I31): 0.112 ppm
CSP (LC3B; LC3B residue I34): 0.268 ppm
CSP (LC3B; LC3B residue I35): 0.113 ppm
CSP (LC3B; LC3B residue I64): 0.179 ppm
CSP (LC3B; LC3B residue I66): 0.103 ppm
CSP (LC3B; LC3B residue I67): 0.053 ppm
CSP (LC3B; LC3B residue K08): 0.049 ppm
CSP (LC3B; LC3B residue K30): 0.042 ppm
CSP (LC3B; LC3B residue K39): 0.108 ppm
CSP (LC3B; LC3B residue K42): 0.061 ppm
CSP (LC3B; LC3B residue K49): 0.162 ppm
CSP (LC3B; LC3B residue K51): 0.313 ppm
CSP (LC3B; LC3B residue K65): 0.162 ppm
CSP (LC3B; LC3B residue K103): 0.084 ppm
CSP (LC3B; LC3B residue L22): 0.077 ppm
CSP (LC3B; LC3B residue L44): 0.080 ppm
CSP (LC3B; LC3B residue L47): 0.391 ppm
CSP (LC3B; LC3B residue L53): 0.260 ppm
CSP (LC3B; LC3B residue L63): 0.163 ppm
CSP (LC3B; LC3B residue L71): 0.095 ppm
CSP (LC3B; LC3B residue L73): 0.103 ppm
CSP (LC3B; LC3B residue L109): 0.035 ppm
CSP (LC3B; LC3B residue M01, estimated): 0.020 ppm
CSP (LC3B; LC3B residue M60): 0.042 ppm
CSP (LC3B; LC3B residue M111): 0.134 ppm
CSP (LC3B; LC3B residue N59): 0.559 ppm
CSP (LC3B; LC3B residue N74): 0.039 ppm
CSP (LC3B; LC3B residue N76): 0.012 ppm
CSP (LC3B; LC3B residue P02, estimated): 0.020 ppm
CSP (LC3B; LC3B residue P28, estimated): 0.020 ppm
CSP (LC3B; LC3B residue P32, estimated): 0.150 ppm
CSP (LC3B; LC3B residue P45, estimated): 0.170 ppm
CSP (LC3B; LC3B residue P55, estimated): 0.150 ppm
CSP (LC3B; LC3B residue Q09): 0.00263 ppm
CSP (LC3B; LC3B residue Q15): 0.016 ppm
CSP (LC3B; LC3B residue Q26): 0.095 ppm
CSP (LC3B; LC3B residue Q43): 0.037 ppm
CSP (LC3B; LC3B residue Q72): 0.019 ppm
CSP (LC3B; LC3B residue Q77): 0.045 ppm
CSP (LC3B; LC3B residue Q116): 0.027 ppm
CSP (LC3B; LC3B residue R10): 0.025 ppm
CSP (LC3B; LC3B residue R11): 0.027 ppm
CSP (LC3B; LC3B residue R16): 0.021 ppm
CSP (LC3B; LC3B residue R21): 0.028 ppm
CSP (LC3B; LC3B residue R24): 0.060 ppm
CSP (LC3B; LC3B residue R37): 0.107 ppm
CSP (LC3B; LC3B residue R68): 0.281 ppm
CSP (LC3B; LC3B residue R69): 0.147 ppm
CSP (LC3B; LC3B residue R70): 0.122 ppm
CSP (LC3B; LC3B residue S03, estimated): 0.020 ppm
CSP (LC3B; LC3B residue S61): 0.163 ppm
CSP (LC3B; LC3B residue S96): 0.238 ppm
CSP (LC3B; LC3B residue S101): 0.072 ppm
CSP (LC3B; LC3B residue S115): 0.019 ppm
CSP (LC3B; LC3B residue T06): 0.020 ppm
CSP (LC3B; LC3B residue T12): 0.021 ppm
CSP (LC3B; LC3B residue T29): 0.015 ppm
CSP (LC3B; LC3B residue T50): 0.299 ppm
CSP (LC3B; LC3B residue T118): 0.045 ppm
CSP (LC3B; LC3B residue V17): 0.022 ppm
CSP (LC3B; LC3B residue V20): 0.018 ppm
CSP (LC3B; LC3B residue V33): 0.194 ppm
CSP (LC3B; LC3B residue V46): 0.270 ppm
CSP (LC3B; LC3B residue V54): 0.190 ppm
CSP (LC3B; LC3B residue V58): 0.313 ppm
CSP (LC3B; LC3B residue V98): 0.081 ppm
CSP (LC3B; LC3B residue V112): 0.337 ppm
CSP (LC3B; LC3B residue Y38): 0.061 ppm
CSP (LC3B; LC3B residue Y99): 0.068 ppm
CSP (LC3B; LC3B residue Y110): 0.103 ppm
CSP (LC3B; LC3B residue Y113): 0.148 ppm
CSP induced (LC3B; M111 HN resonance, molar ratio TH152:LC3B 0.125): 0.01154
CSP induced (LC3B; M111 HN resonance, molar ratio TH152:LC3B 0.25): 0.02288
CSP induced (LC3B; M111 HN resonance, molar ratio TH152:LC3B 0.5): 0.0422
CSP induced (LC3B; M111 HN resonance, molar ratio TH152:LC3B 1): 0.08206
CSP induced (LC3B; M111 HN resonance, molar ratio TH152:LC3B 2): 0.1192
CSP induced (LC3B; M111 HN resonance, molar ratio TH152:LC3B 4): 0.1287
CSP induced (LC3B; S90 HN resonance, molar ratio TH152:LC3B 0.125): 0.02291
CSP induced (LC3B; S90 HN resonance, molar ratio TH152:LC3B 0.25): 0.03839
CSP induced (LC3B; S90 HN resonance, molar ratio TH152:LC3B 0.5): 0.1193
CSP induced (LC3B; S90 HN resonance, molar ratio TH152:LC3B 1): 0.155
CSP induced (LC3B; S90 HN resonance, molar ratio TH152:LC3B 2): 0.2522
CSP induced (LC3B; S90 HN resonance, molar ratio TH152:LC3B 4): 0.2665
CSP induced (LC3B; V33 HN resonance, molar ratio TH152:LC3B 0.125): 0.02123
CSP induced (LC3B; V33 HN resonance, molar ratio TH152:LC3B 0.25): 0.03832
CSP induced (LC3B; V33 HN resonance, molar ratio TH152:LC3B 0.5): 0.08102
CSP induced (LC3B; V33 HN resonance, molar ratio TH152:LC3B 1): 0.1239
CSP induced (LC3B; V33 HN resonance, molar ratio TH152:LC3B 2): 0.1753
CSP induced (LC3B; V33 HN resonance, molar ratio TH152:LC3B 4): 0.2006
SMILES: CCCCCCC(Sc1nc(Cl)cc(Nc2nc(-c3ccc(C(=O)O)cc3)cs2)n1)C(=O)O (stereo not shown) [compound 21]
FP assay result (normalised FP signal) (LC3A; log10 concentration [M] -4): 23.8052 and 27.7728 and 15.8702 and 10.8206
FP assay result (normalised FP signal) (LC3A; log10 concentration [M] -4.5): 40.3968 and 45.4463 and 36.0685 and 29.5762
FP assay result (normalised FP signal) (LC3A; log10 concentration [M] -5): 79.7115 and 85.4824 and 71.4157 and 74.3012
FP assay result (normalised FP signal) (LC3A; log10 concentration [M] -6): 102.435 and 103.156 and 95.2209 and 98.4671
FP assay result (normalised FP signal) (LC3A; log10 concentration [M] -6.5): 94.8602 and 102.795 and 92.3354 and 90.8927
FP assay result (normalised FP signal) (LC3A; log10 concentration [M] -7): 102.074 and 100.271 and 99.1885 and 98.4671
FP assay result (normalised FP signal) (LC3A; log10 concentration [M] -7.5): 103.877 and 100.271 and 96.6637 and 94.4995
FP assay result (normalised FP signal) (LC3A; log10 concentration [M] -8.5): 95.9423 and 95.2209 and 93.4175 and 99.9098
